# Assay results: US10258602B2 (Ocera Therapeutics, Inc., priority 2007, dated 2019)
# Tests used:
# human plasma = test: Plasma protein binding, human plasma (equilibrium dialysis); format: in vitro ADME
# Excerpt: J. Plasma Protein Binding
# The pharmacokinetic and pharmacodynamic properties of drugs are largely a function of the reversible binding of drugs to plasma or serum proteins such as albumin and α1-acid glycoprotein. In general, only unbound drug is available for diffusion or transport across cell membranes, and for interaction at the pharmacological target. On the other hand, drugs with low plasma protein binding generally have large volumes of distribution and rapid clearance since only unbound drug is available for glomerular filtration and, in some cases, hepatic clearance. Thus, the extent of plasma protein binding can influence efficacy, distribution and elimination. The ideal range for plasma protein binding is in the range of 87-98% for most drug products.
# Protein binding studies were performed using human plasma. Briefly, 96-well microplates were used to incubate various concentrations of the test article for 60 min at 37° C. Bound and unbound fractions are separated by equilibrium dialysis, where the concentration remaining in the unbound fraction is quantified by LC-MS or LC-MS-MS analysis. […].
# The table below presents protein binding data for representative compounds of the present invention in both human and rat plasma.
# CYP2A6 = target: T1, CYP2A6 (Homo sapiens, UniProt P11509); test: Cytochrome P450 inhibition, CYP2A6; format: in vitro ADME; details: read-out: IC50 2A6
# T1 construct: purchased BD Gentest, Becton-Dickinson (Supersomes); host or cells: insect cells
# T1 sequence (P11509 1-494): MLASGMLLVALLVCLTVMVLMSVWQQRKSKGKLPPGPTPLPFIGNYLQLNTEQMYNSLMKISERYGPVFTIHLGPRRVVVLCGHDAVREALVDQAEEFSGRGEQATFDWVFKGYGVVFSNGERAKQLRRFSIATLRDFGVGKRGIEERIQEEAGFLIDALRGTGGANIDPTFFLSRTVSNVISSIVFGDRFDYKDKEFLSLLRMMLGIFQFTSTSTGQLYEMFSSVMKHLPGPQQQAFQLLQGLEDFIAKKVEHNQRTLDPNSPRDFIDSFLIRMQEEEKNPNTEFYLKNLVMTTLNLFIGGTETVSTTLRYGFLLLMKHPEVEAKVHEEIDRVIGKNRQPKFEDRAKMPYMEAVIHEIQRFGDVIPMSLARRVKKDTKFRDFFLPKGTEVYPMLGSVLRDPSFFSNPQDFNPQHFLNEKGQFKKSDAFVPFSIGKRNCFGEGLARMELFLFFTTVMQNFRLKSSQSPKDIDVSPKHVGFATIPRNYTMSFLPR
# Excerpt: (§1) K. Assay for Cytochrome P450 Inhibition
# (§2) Cytochrome P450 enzymes are implicated in the phase I metabolism of drugs. The majority of drug-drug interactions are metabolism-based and, moreover, these interactions typically involve inhibition of cytochrome P450s. Six CYP450 enzymes (CYP1A2, CYP2C8, CYP2C9, CYP2C19, CYP2D6 and CYP3A4) appear to be commonly responsible for the metabolism of most drugs and the associated drug-drug interactions. Assays to determine the binding of compounds of the invention to the various metabolically important isoforms of cytochrome P450 metabolizing enzymes are commercially available, for example NoAb BioDiscoveries (Mississaugua, ON, Canada) and Absorption Systems (Exton, Pa., USA). As well, a number of appropriate methods have been described or reviewed in the literature. (White, R. E. Ann. Rev. Pharmacol. Toxicol. 2000, 40, 133-157; Li, A. P. Drug. Disc. Today 2001, 6, 357-366; Turpeinen, M.; Korhonen, L. E. Tolonen, A.; et al. Eur. J. Pharm. Sci, 2006, 29, 130-138.)
# (§3) The key aspects of the experimental method were as follows: • 1. […] Assays monitored, via fluorescence detection, the formation of a fluorescent metabolite following incubation of the microsomes with a specific CYP substrate. • 3. Compounds of the present invention were tested in duplicate samples at eight test concentrations using 3-fold serial dilutions (concentration range of 0.0457 to 100 μM). • 4. For each CYP-450 enzyme, a specific inhibitor was tested in duplicate at eight concentrations as a positive control. • 5. The concentration of the inhibitor or test compound that inhibited metabolite formation by 50% (IC50) was calculated by non-linear regression analysis of the % inhibition vs. log concentration (M) curve.
# CYP2B6 = target: T2, CYP2B6 (Homo sapiens, UniProt P20813); test: Cytochrome P450 inhibition, CYP2B6; format: in vitro ADME; details: read-out: IC50 2B6
# T2 construct: purchased BD Gentest, Becton-Dickinson (Supersomes); host or cells: insect cells
# T2 sequence (P20813 1-491): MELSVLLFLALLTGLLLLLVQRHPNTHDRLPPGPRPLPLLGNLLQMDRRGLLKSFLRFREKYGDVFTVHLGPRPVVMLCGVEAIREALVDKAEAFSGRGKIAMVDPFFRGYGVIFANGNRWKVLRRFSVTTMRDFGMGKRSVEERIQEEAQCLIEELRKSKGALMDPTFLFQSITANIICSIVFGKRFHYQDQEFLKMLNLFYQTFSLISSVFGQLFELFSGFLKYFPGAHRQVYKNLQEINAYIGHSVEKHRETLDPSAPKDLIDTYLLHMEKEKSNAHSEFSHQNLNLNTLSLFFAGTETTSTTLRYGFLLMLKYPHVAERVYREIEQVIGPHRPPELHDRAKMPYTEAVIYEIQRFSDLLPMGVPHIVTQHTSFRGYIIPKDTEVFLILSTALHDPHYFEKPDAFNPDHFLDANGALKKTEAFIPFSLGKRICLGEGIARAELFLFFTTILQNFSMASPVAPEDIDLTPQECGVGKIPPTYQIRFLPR
# Excerpt: as §1, §2, §3
# CYP2C19 = target: T3, CYP2C19 (Homo sapiens, UniProt P33261); test: Cytochrome P450 inhibition, CYP2C19; format: in vitro ADME; details: read-out: IC50 2C19
# T3 construct: purchased BD Gentest, Becton-Dickinson (Supersomes); host or cells: insect cells
# T3 sequence (P33261 whole entry): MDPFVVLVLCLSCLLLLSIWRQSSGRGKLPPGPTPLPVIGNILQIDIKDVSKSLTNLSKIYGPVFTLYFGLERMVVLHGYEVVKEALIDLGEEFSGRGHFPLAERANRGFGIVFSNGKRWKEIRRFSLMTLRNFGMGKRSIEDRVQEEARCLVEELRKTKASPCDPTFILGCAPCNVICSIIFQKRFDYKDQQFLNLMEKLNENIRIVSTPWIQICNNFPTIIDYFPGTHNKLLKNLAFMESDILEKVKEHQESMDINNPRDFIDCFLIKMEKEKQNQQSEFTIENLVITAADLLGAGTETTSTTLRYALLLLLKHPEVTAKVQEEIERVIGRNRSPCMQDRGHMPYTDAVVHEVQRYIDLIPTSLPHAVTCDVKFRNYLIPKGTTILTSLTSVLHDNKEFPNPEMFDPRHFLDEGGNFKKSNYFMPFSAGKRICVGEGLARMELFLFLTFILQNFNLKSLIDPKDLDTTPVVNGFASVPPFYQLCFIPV
# Excerpt: as §1, §2, §3
# CYP2E1 = target: T4, CYP2E1 (Homo sapiens, UniProt P05181); test: Cytochrome P450 inhibition, CYP2E1; format: in vitro ADME; details: read-out: IC50 2E1
# T4 construct: purchased BD Gentest, Becton-Dickinson (Supersomes); host or cells: insect cells
# T4 sequence (P05181 whole entry): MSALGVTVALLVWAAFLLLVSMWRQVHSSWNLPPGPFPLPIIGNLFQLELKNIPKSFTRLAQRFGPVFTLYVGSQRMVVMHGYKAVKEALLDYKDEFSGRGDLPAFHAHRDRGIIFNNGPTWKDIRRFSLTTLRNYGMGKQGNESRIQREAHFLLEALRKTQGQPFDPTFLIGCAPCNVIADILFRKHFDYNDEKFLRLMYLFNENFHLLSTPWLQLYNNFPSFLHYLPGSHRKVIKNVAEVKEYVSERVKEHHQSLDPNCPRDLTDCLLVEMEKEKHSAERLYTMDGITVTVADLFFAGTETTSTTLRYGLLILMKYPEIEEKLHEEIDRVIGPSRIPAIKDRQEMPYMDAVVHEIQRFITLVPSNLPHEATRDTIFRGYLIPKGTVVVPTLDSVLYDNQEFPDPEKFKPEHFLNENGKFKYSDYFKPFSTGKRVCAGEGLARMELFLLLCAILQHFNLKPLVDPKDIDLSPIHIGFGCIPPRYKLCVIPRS
# Excerpt: as §1, §2, §3
# fasted rats = test: Gastric emptying in fasted rat model, standard method E; format: in vivo; details: for Percent Increase in Gastric Emptying After Oral Administration: average where repeated
# Procedure: E. Gastric Emptying in Fasted Rat Model
# To examine the effects of compounds of the invention in a model for gastroparesis, compounds were evaluated for possible effects on gastric emptying in fasted rats. This model is used to determine the potential of compounds of the invention to promote motility in fasted rats.
# • 1. Overnight-fasted rats (male, Wistar, 200 g, n=5/group) were given a meal (2 mL) of methylcellulose (2%) by intragastric gavage. The meal was labeled with phenol red (0.05%). • 2. Test articles (dosed at various concentrations, typically 1, 3, 10, 30 mg/kg), vehicle and positive control (metoclopramide, a 5-HT ligand and prokinetic agent currently prescribed for the treatment of GI disorders, including gastroparesis) were administered by oral gavage immediately after the meal (time=0). • 3. […] Total phenol red remaining in the stomach was quantified by a colorimetric method at 560 nm. • 5. A 30% or more increase in gastric emptying (as compared to the vehicle control) was considered significant. • 6. One-way ANOVA, Dunnet's post-hoc statistical test was applied Results
# The effects of representative compounds of the invention in the rat gastric emptying model described in standard method E are provided in the following table. In cases where an experiment was conducted multiple times, the average of the individual results is presented.
SMILES,IC50 (CYP2A6),IC50 (CYP2B6),IC50 (CYP2C19),IC50 (CYP2E1),Human Plasma Protein Binding (%) (human plasma; test concentration 5 μg/mL),Human Plasma Protein Binding (%) (human plasma; test concentration 1 μg/mL),Percent Increase in Gastric Emptying After Oral Administration (fasted rats; dose 1 mg/kg),Percent Increase in Gastric Emptying After Oral Administration (fasted rats; dose 3 mg/kg),Percent Increase in Gastric Emptying After Oral Administration (fasted rats; dose 10 mg/kg),Human Plasma Protein Binding (%) (human plasma; test concentration 3 μg/mL),"gastric emptying rates remained increased (fasted rats; oral, up to 24 h post-dose)"
C[C@@H]1C(=O)N[C@H](Cc2ccc(O)cc2)C(=O)NCCCc2cccc3c2O[C@H](CC3)CN[C@@H](C2CC2)C(=O)N1C [Compound 803],> 100 µM,53.6 µM,> 100 µM,> 100 µM,,97.8%,,,,,
CC1NC(C2CC2)C(=O)N(C)C(C)C(=O)NC(Cc2ccc(O)cc2)C(=O)NCCCc2ccccc2OC1C (stereo not shown) [Compound 820],> 100 µM,> 100 µM,> 100 µM,> 100 µM,,,6%,20%,22%,99.0%,
CC1CNC(C2CC2)C(=O)N(C)C(C)C(=O)NC(Cc2ccc(O)cc2)C(=O)NCCCC2CCCCC2O1 (mixture of isomers) [Compound 826],> 100 µM,> 100 µM,> 100 µM,> 100 µM,,,19%,12%,30%,94.3%,
C[C@@H]1C(=O)N[C@H](Cc2ccc(O)cc2)C(=O)NCCCc2ccc(F)cc2OCCN[C@@H](C2CC2)C(=O)N1C [Compound 809],> 100 µM,> 100 µM,> 100 µM,> 100 µM,,,,5%,,88.4%,

# More lines, main results first:
IC50 (CYP2A6),IC50 (CYP2B6),IC50 (CYP2C19),IC50 (CYP2E1),Human Plasma Protein Binding (%) (human plasma; test concentration 5 μg/mL),SMILES,Human Plasma Protein Binding (%) (human plasma; test concentration 1 μg/mL),Percent Increase in Gastric Emptying After Oral Administration (fasted rats; dose 1 mg/kg),Percent Increase in Gastric Emptying After Oral Administration (fasted rats; dose 3 mg/kg),Percent Increase in Gastric Emptying After Oral Administration (fasted rats; dose 10 mg/kg),Human Plasma Protein Binding (%) (human plasma; test concentration 3 μg/mL),"gastric emptying rates remained increased (fasted rats; oral, up to 24 h post-dose)"
> 100 µM,> 100 µM,> 100 µM,> 100 µM,,CC(C)C[C@H]1NC(=O)[C@@H](C)N(C)C(=O)[C@H](C2CC2)NC[C@@H](C)Oc2ccccc2CC[C@H](C)NC1=O [Compound 807],,17%,31%,41%,,18-23%
> 100 µM,> 100 µM,> 100 µM,> 100 µM,,CC(C)C[C@H]1NC(=O)[C@@H](C)N(C)C(=O)[C@H](C2CC2)NCCOc2cc(F)ccc2CC[C@H](C)NC1=O [Compound 822],,,6%,,93.0%,
> 100 µM,> 100 µM,> 100 µM,> 100 µM,,CC(C)CC1NC(=O)C(C)N(C)C(=O)C(C2CCCCC2)NCC(C)OC2CCCCC2CCCNC1=O (mixture of isomers) [Compound 828],,,24%,,76.8%,
> 100 µM,102 µM,> 100 µM,> 100 µM,,CC(C)C[C@H]1NC(=O)[C@@H](C)N(C)C(=O)[C@H](C2CC2)NCCOc2cc(F)ccc2CCCNC1=O [Compound 810],,,,,78.9%,
> 100 µM,> 100 µM,> 100 µM,> 100 µM,70%,CC(C)CC1NC(=O)C(C)N(C)C(=O)C(C2CC2)NCC(C)OC2CCCCC2CCCNC1=O (mixture of isomers) [Compound 825],83%,,,,,
